Measured values as given in patent US10906887B2, “Amino compounds for treatment of immune and inflammatory disorders” (Achillion Pharmaceuticals, Inc., priority 2015, dated 2021).

Target: T1, Human Factor D (Homo sapiens, UniProt P00746)
T1 construct: purified from human serum
Experiment: Human Factor D Assay
Format: biochemical
Conditions: Human Factor D 80 nM, substrate Z-L-Lys-SBzl, assay of Example 12
Procedure: Human Factor D (purified from human serum, Complement Technology, Inc.) at 80 nM final concentration was incubated with test compound at various concentrations for 5 minutes at room temperature in 50 mM Tris, 1M NaCl, pH 7.5. A synthetic substrate Z-L-Lys-SBzl and DTNB (Ellman's reagent) are added to final concentrations of 100 μM each. Absorbance at 405 nm (A405) was recorded at 30 second intervals for 30 minutes using a microplate spectrophotometer. IC50 values are calculated by nonlinear regression of complement Factor D reaction rates as a function of test compound concentration.
The assay of Example 12 was used to determine the IC50's of the compounds. Other standard Factor D inhibition assays are also available.

T1 sequence (P00746 26-253): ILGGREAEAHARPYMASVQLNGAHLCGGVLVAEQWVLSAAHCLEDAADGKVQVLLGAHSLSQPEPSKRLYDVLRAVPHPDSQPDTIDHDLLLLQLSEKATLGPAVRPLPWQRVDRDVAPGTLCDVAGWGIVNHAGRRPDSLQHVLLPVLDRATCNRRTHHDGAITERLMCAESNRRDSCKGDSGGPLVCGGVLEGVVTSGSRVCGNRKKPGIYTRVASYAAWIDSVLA

IC50: > 10 µM
Compound: Cc1cccc(NC(=O)[C@@H]2CC=CCN2C(=O)Cn2cc(C(N)=O)c3cc(Nc4cccnn4)ccc32)n1 [compound 1, (S)-1-(2-(6-((6-methylpyridin-2-yl)carbamoyl)-5,6-dihydropyridin-1(2H)-yl)-2-oxoethyl)-5-(pyridazin-3-ylamino)-1H-indole-3-carboxamide]
